# Assay results as given in patent publication US9849114B2, “Oxymetazoline for the treatment of ano-rectal disorders” (RDD Pharma Ltd., priority 2011, dated 2017).
# Structures can show the parent of a compound that is named as a salt.
# Experiments:
# Healthy volunteers = assay: Resting anal pressure by anorectal manometry after intraanal administration (Example 1); type: in vivo, human
# Protocol: Preparations of phenylephrine hydrochloride and oxymetazoline were prepared. The oxymetazoline was first dissolved in propylene glycol and then added to polyethylene glycol 1500 to obtain a solution in the concentration of 1 mg/1 mL.
# The preparations were administered intraanally. The doses are expressed as both a volume of a concentration of the drug solution and also as milligrams of the active ingredient.
# Resting anal pressure was determined by anorectal manometry for measuring contractility in the anus and rectum using the ManoScan 360™ catheter (Sierra Scientific Instruments).
# Healthy volunteers, men and women of 18 to 55 years old received intraanal dose of 40 mg (40 mL) or 80 mg (80 mL) phenylephrine or a dose of 1 mg oxymetazoline (1 mL; 0.1%). None of the volunteers had symptoms of anal incontinence nor previous anal surgery and presumed to have intact internal and external anal sphincters. Pre-treatment mean resting pressure was 85 mmHg for the phenyephrine 40 mg group, and 81 mmHg for the phenylephrine 80 mg group.
# After the application of the aforementioned doses of phenylephrine and oxymetazoline, resting anal pressure was determined at the following time intervals: […], […] The results are summarized in Tables 1 and 2 below and in FIG. 1.
# [1] = system: patient having a reduced anal resting pressure; conditions: phenylephrine concentrations below 10%, topical; cited from earlier work
# healthy human subjects [2] = assay: Change in resting anal pressure at different oxymetazoline doses (Example 2); type: in vivo
# healthy human subjects [3] = assay: Cardiac effect of oxymetazoline: blood pressure and heart rate (Example 2); type: in vivo
# Text: The effect of oxymetazoline on cardiac parameters was examined in four healthy human subjects.
# [4] = Solubility of oxymetazoline; type: physicochemical; conditions: aqueous and non aqueous media
# [5] = on lowering the pH of formulations, even with PVPs or PEGs; cited from earlier work
# [6] = Phenylephrine 40 mg intraanal, time 90 min
# [7] = Phenylephrine 40 mg intraanal, time 180 min
# [8] = Phenylephrine 40 mg intraanal, time 240 min
# [9] = Phenylephrine 80 mg intraanal, time 90 min
# [10] = Phenylephrine 80 mg intraanal, time 180 min
# [11] = Phenylephrine 80 mg intraanal, time 240 min
# [12] = oxymetazoline 1 mg (1 mL; 0.1%) intraanal, time 0 min
# [13] = oxymetazoline 1 mg (1 mL; 0.1%) intraanal, time 60 min
# [14] = oxymetazoline 1 mg (1 mL; 0.1%) intraanal, time 180 min
# [15] = oxymetazoline 1 mg (1 mL; 0.1%) intraanal, time 300 min
smiles,measurement,setting,value
CNC[C@H](O)c1cccc(O)c1 [Phenylephrine],Maximum increase in anal pressure,Healthy volunteers; 40 mg phenylephrine intraanal,10 mmHg
same,Time to reach the initial (pre-treatment) resting anal pressure,Healthy volunteers; 40 mg phenylephrine intraanal,less than 5 hours
same,Maximum increase in anal pressure,Healthy volunteers; 80 mg phenylephrine intraanal,22.5 mmHg
same,Time in which increased pressure dropped nearly to the pressure prior to treatment,Healthy volunteers; 80 mg phenylephrine intraanal,≤ 3 h
same,Time in which resting anal pressure dropped down to the pressure observed prior to treatment,Healthy volunteers; 80 mg phenylephrine intraanal,less than 5 hours
same,Change Relative to T = 0 (resting anal pressure),"Healthy volunteers; Phenylephrine 40 mg intraanal, time 0 min",0 mmHg
same,Resting anal pressure,"Healthy volunteers; Phenylephrine 40 mg intraanal, time 0 min (pre-treatment)",85 mmHg
same,Change Relative to T = 0 (resting anal pressure),Healthy volunteers; [6],10 mmHg
same,Resting anal pressure,Healthy volunteers; [6],95 mmHg
same,Change Relative to T = 0 (resting anal pressure),Healthy volunteers; [7],7.5 mmHg
same,Resting anal pressure,Healthy volunteers; [7],92.5 mmHg
same,Change Relative to T = 0 (resting anal pressure),Healthy volunteers; [8],0 (±1.75) mmHg
same,Resting anal pressure,Healthy volunteers; [8],83.25 mmHg
same,Change Relative to T = 0 (resting anal pressure),"Healthy volunteers; Phenylephrine 80 mg intraanal, time 0 min",0 mmHg
same,Resting anal pressure,"Healthy volunteers; Phenylephrine 80 mg intraanal, time 0 min (pre-treatment)",81 mmHg
same,Change Relative to T = 0 (resting anal pressure),Healthy volunteers; [9],22.5 mmHg
same,Resting anal pressure,Healthy volunteers; [9],103.5 mmHg
same,Change Relative to T = 0 (resting anal pressure),Healthy volunteers; [10],6.75 mmHg
same,Resting anal pressure,Healthy volunteers; [10],87.75 mmHg
same,Change Relative to T = 0 (resting anal pressure),Healthy volunteers; [11],0 (±1.75) mmHg
same,Resting anal pressure,Healthy volunteers; [11],80.25 mmHg
same,Increase in the maximum resting pressure,[1],no significant increase
"Cc1cc(C(C)(C)C)c(O)c(C)c1CC1=NCCN1 [Oxymetazoline, 3-(4,5-dihydro-1H-imidazol-2-ylmethyl)-2,4-dimethyl-6-tert-butyl-phenol]",Change Relative to T = 0 (resting anal pressure),Healthy volunteers; [12],0 mmHg
same,Resting anal pressure,Healthy volunteers; [12],75 mmHg
same,Change Relative to T = 0 (resting anal pressure),Healthy volunteers; [13],18 mmHg
same,Resting anal pressure,Healthy volunteers; [13],93 mmHg
same,Change Relative to T = 0 (resting anal pressure),Healthy volunteers; [14],28 mmHg
same,Resting anal pressure,Healthy volunteers; [14],103 mmHg
same,Change Relative to T = 0 (resting anal pressure),Healthy volunteers; [15],27 mmHg
same,Resting anal pressure,Healthy volunteers; [15],102 mmHg
same,Increase in the maximum resting pressure relative to the pressure before treatment,Healthy volunteers; oxymetazoline 1 mg intraanal,about 30 mmHg
same,Time for which the increased resting anal pressure was maintained,"Healthy volunteers; oxymetazoline 1 mg intraanal, duration of the recording",at least 5 hours
same,Change in resting anal pressure,healthy human subjects [2]; Oxymetazoline dose 0.01%,11 mmHg
same,Change in resting anal pressure,healthy human subjects [2]; Oxymetazoline dose 0.1%,18.5 mmHg
same,Significance of change in resting anal pressure with respect to baseline,healthy human subjects [2]; Oxymetazoline dose 0.1%,statistically significant
same,Change in resting anal pressure,healthy human subjects [2]; Oxymetazoline dose 0.5%,24.75 mmHg
same,Significance of change in resting anal pressure with respect to baseline,healthy human subjects [2]; Oxymetazoline dose 0.5%,statistically significant
same,Change in diastolic blood pressure,healthy human subjects [3]; Oxymetazoline dose 0.01%,2 mmHg
same,Change in heart rate,healthy human subjects [3]; Oxymetazoline dose 0.01%,−3 beats/min
same,Change in systolic Blood pressure,healthy human subjects [3]; Oxymetazoline dose 0.01%,6 mmHg
same,Change in diastolic blood pressure,healthy human subjects [3]; Oxymetazoline dose 0.1%,0 mmHg
same,Change in heart rate,healthy human subjects [3]; Oxymetazoline dose 0.1%,0 beats/min
same,Change in systolic Blood pressure,healthy human subjects [3]; Oxymetazoline dose 0.1%,5 mmHg
same,Change in diastolic blood pressure,healthy human subjects [3]; Oxymetazoline dose 0.5%,1 mmHg
same,Change in heart rate,healthy human subjects [3]; Oxymetazoline dose 0.5%,1 beats/min
same,Change in systolic Blood pressure,healthy human subjects [3]; Oxymetazoline dose 0.5%,3 mmHg
same,"Changes in the diastolic blood pressure, systolic blood pressure or in the heart rate",healthy human subjects [3]; low doses of about 0.1%,did not induce any changes
same,Cardiovascular side effect,healthy human subjects [3]; low doses of oxymetazoline (0.01%-0.5%),do not induce any cardiovascular side effect
same,Solubility,[4],soluble in aqueous and non aqueous media
"Cc1cc(C(C)(C)C)c(O)c(C)c1CC1=NCCN1 [oxymetazoline HCl, 6-tert-butyl-3-(2-imidazolin-2-ylmethyl)-2,4-dimentylphenol hydrochloride]",Photodegradation level,[5],significantly reduced
